Reference: patent US6960614B2, “Oxygenated esters of 4-lodo phenylamino benzhydroxamic acids” (Warner-Lambert Company, priority 2000, dated 2005)

Tested on: MEK
Assay: Cellular Assay for Measuring MEK Inhibition (inhibition of ERK phosphorylation in C26 cells, Western blot)
Assay type: cell-based, murine
Details: for % Inhibition @ 0.1 μM / % Inhibition @ 1 μM / % Inhibition @ 10 μM: ERK phosphorylation in C26 cells; for IC50: inhibition of ERK phosphorylation in murine colon 26 (C26) carcinoma cells, determined graphically from dose response curve
Protocol: The evaluation of the compounds as MEK inhibitors was performed in an assay that measures their ability to inhibit phosphorylation of MAP kinase […]) in murine colon 26 (C26) carcinoma cells. Since ERK1 and ERK2 represent the only known substrates for MEK, measurement of inhibition of ERK phosphorylation in cells provides direct readout of cellular MEK inhibition by the compounds of the invention. Briefly, the assay involves treating exponentially growing C26 cells with varying concentrations of the test compound (or vehicle control) for […] at 37° C. Cells are then rinsed free of compound/vehicle and lysed in a solution containing 70 mM NaCl, 50 mM glycerol phosphate, 10 mM HEPES, pH 7.4, 1% Triton X-100, 1 mM Na3VO4, 100 μM PMSF, 10 μM leupeptin and 10 μM pepstatin. Supernatants are then subjected to gel electrophoresis and Western blotting using a primary antibody recognizing dually phosphorylated ERK1 and ERK2. To evaluate total MAPK levels, blots were subsequently ‘stripped’ and re-probed with a 1:1 mixture of polyclonal antibodies recognizing unphosphorylated ERK1 and ERK2.

Row | IC50 | SMILES | % Inhibition @ 0.1 μM | % Inhibition @ 1 μM | % Inhibition @ 10 μM
1 | – | CC(CO)ONC(=O)c1cc(Br)c(F)c(F)c1Nc1ccc(I)cc1F (centres unmarked) [Example 129, 5-Bromo-3,4-difluoro-2-(2-fluoro-4-iodo-phenylamino)-N-(2-hydroxy-1-methyl-ethoxy)-benzamide] | 100% | 100% | –
2 | 4 nM | CC(CO)ONC(=O)c1cc(Cl)c(F)c(F)c1Nc1ccc(I)cc1F (centres unmarked) [Example 130, 5-Chloro-3,4-difluoro-2-(2-fluoro-4-iodo-phenylamino)-N-(2-hydroxy-1-methyl-ethoxy)-benzamide] | – | – | –
3 | – | CC(CO)ONC(=O)c1cc(F)c(F)cc1Nc1ccc(I)cc1F (centres unmarked) [Example 131, 4,5-Difluoro-2-(2-fluoro-4-iodo-phenylamino)-N-(2-hydroxy-1-methyl-ethoxy)-benzamide] | 78.7% | 91.3% | –
4 | – | CC(CO)ONC(=O)c1cc(Cl)c(F)c(F)c1Nc1ccc(F)cc1F (centres unmarked) [Example 132, 5-Chloro-2-(2,4-difluoro-phenylamino)-3,4-difluoro-N-(2-hydroxy-1-methyl-ethoxy)-benzamide] | – | 45.7% | 80.6%
5 | – | CC(CO)ONC(=O)c1ccc(F)c(F)c1Nc1ccc(F)cc1F (centres unmarked) [Example 133, 2-(2,4-Difluoro-phenylamino)-3,4-difluoro-N-(2-hydroxy-1-methyl-ethoxy)-benzamide] | 0% | 26.4% | –
6 | 370 nM | COCCONC(=O)c1ccc(F)c(F)c1Nc1ccc(I)cc1Cl [Example 134, 2-(2-Chloro-4-iodo-phenylamino)-3,4-difluoro-N-(2-methoxy-ethoxy)-benzamide] | – | – | –
7 | – | COCCONC(=O)c1cc(F)c(F)c(F)c1Nc1ccc(I)cc1Cl [Example 135, 2-(2-Chloro-4-iodo-phenylamino)-3,4,5-trifluoro-N-(2-methoxy-ethoxy)-benzamide] | 0% | 41.4% | –
8 | 250 nM | COCCONC(=O)c1ccc(F)c(F)c1Nc1ccc(I)cc1C [Example 136, 3,4-Difluoro-2-(4-iodo-2-methyl-phenylamino)-N-(2-methoxy-ethoxy)-benzamide] | – | – | –
9 | 100 nM | COCCONC(=O)c1cc(Br)c(F)c(F)c1Nc1ccc(I)cc1C [Example 137, 5-Bromo-3,4-difluoro-2-(4-iodo-2-methyl-phenylamino)-N-(2-methoxy-ethoxy)-benzamide] | – | – | –
10 | – | COCCONC(=O)c1cc(F)c(F)c(F)c1Nc1ccc(I)cc1C [Example 138, 3,4,5-Trifluoro-2-(4-iodo-2-methyl-phenylamino)-N-(2-methoxy-ethoxy)-benzamide] | 0% | 19.6% | –
11 | 360 nM | COCCONC(=O)c1cc(Br)c(F)c(F)c1Nc1ccc(I)cc1Cl [Example 139, 5-Bromo-2-(2-chloro-4-iodo-phenylamino)-3,4-difluoro-N-(2-methoxy-ethoxy)-benzamide] | – | – | –
12 | 450 nM | COCCONC(=O)c1cc(Cl)c(F)c(F)c1Nc1ccc(I)cc1Cl [Example 140, 5-Chloro-2-(2-chloro-4-iodo-phenylamino)-3,4-difluoro-N-(2-methoxy-ethoxy)-benzamide] | – | – | –
13 | – | COCCONC(=O)c1cc(Cl)c(F)c(F)c1Nc1ccc(I)cc1C [Example 141, 5-Chloro-3,4-difluoro-2-(4-iodo-2-methyl-phenylamino)-N-(2-methoxy-ethoxy)-benzamide] | 38% | 92.7% | –
14 | – | COCCONC(=O)c1cc(Cl)c(F)c(F)c1Nc1ccc(I)cc1F [Example 142, 5-Chloro-3,4-difluoro-2-(2-fluoro-4-iodo-phenylamino)-N-(2-methoxy-ethoxy)-benzamide] | 31% | 91.4% | –
15 | 600 nM | O=C(NOCC(O)CN1CCOCC1)c1ccc(F)c(F)c1Nc1ccc(I)cc1Cl (centres unmarked) [Example 143, 2-(2-Chloro-4-iodo-phenylamino)-3,4-difluoro-N-(2-hydroxy-3-morpholin-4-yl-propoxy)-benzamide] | – | – | –
16 | 100 nM | O=C(NOCC(O)CN1CCOCC1)c1cc(F)c(F)c(F)c1Nc1ccc(I)cc1Cl (centres unmarked) [Example 145, 2-(2-Chloro-4-iodo-phenylamino)-3,4,5-trifluoro-N-(2-hydroxy-3-morpholin-4-yl-propoxy)-benzamide] | – | – | –
17 | – | Cc1cc(I)ccc1Nc1c(C(=O)NOCC(O)CN2CCOCC2)cc(F)c(F)c1F (centres unmarked) [Example 146, 3,4,5-Trifluoro-N-(2-hydroxy-3-morpholin-4-yl-propoxy)-2-(4-iodo-2-methyl-phenylamino)-benzamide] | 0% | 40.5% | –
18 | 100 nM | Cc1cc(I)ccc1Nc1c(C(=O)NOCC(O)CN2CCOCC2)cc(Br)c(F)c1F (centres unmarked) [Example 147, 5-Bromo-3,4-difluoro-N-(2-hydroxy-3-morpholin-4-yl-propoxy)-2-(4-iodo-2-methyl-phenylamino)-benzamide] | – | – | –

Row | IC50 | SMILES | % Inhibition @ 0.1 μM | % Inhibition @ 1 μM | % Inhibition @ 10 μM
19 | 230 nM | Cc1cc(I)ccc1Nc1c(C(=O)NOCC(O)CN2CCOCC2)ccc(F)c1F (centres unmarked) [Example 148, 3,4-Difluoro-N-(2-hydroxy-3-morpholin-4-yl-propoxy)-2-(4-iodo-2-methyl-phenylamino)-benzamide] | – | – | –
20 | 170 nM | O=C(NOCC(O)CN1CCOCC1)c1cc(Cl)c(F)c(F)c1Nc1ccc(I)cc1Cl (centres unmarked) [Example 149, 5-Chloro-2-(2-chloro-4-iodo-phenylamino)-3,4-difluoro-N-(2-hydroxy-3-morpholin-4-yl-propoxy)-benzamide] | – | – | –
21 | – | Cc1cc(I)ccc1Nc1c(C(=O)NOCC(O)CN2CCOCC2)cc(Cl)c(F)c1F (centres unmarked) [Example 150, 5-Chloro-3,4-difluoro-N-(2-hydroxy-3-morpholin-4-yl-propoxy)-2-(4-iodo-2-methyl-phenylamino)-benzamide] | 49% | 99.9% | –
22 | 41 nM | O=C(NOCC(O)CN1CCOCC1)c1ccc(F)c(F)c1Nc1ccc(I)cc1F (centres unmarked) [Example 151, 3,4-Difluoro-2-(2-fluoro-4-iodo-phenylamino)-N-(2-hydroxy-3-morpholin-4-yl-propoxy)-benzamide] | – | – | –
23 | – | O=C(NOCC(O)CN1CCOCC1)c1cc(Cl)c(F)c(F)c1Nc1ccc(I)cc1F (centres unmarked) [Example 152, 5-Chloro-3,4-difluoro-2-(2-fluoro-4-iodo-phenylamino)-N-(2-hydroxy-3-morpholin-4-yl-propoxy)-benzamide] | 59.2% | 90.3% | –
24 | – | O=C(NOCC(O)CN1CCOCC1)c1cc(F)c(F)cc1Nc1ccc(I)cc1F (centres unmarked) [Example 153, 4,5-Difluoro-2-(2-fluoro-4-iodo-phenylamino)-N-(2-hydroxy-3-morpholin-4-yl-propoxy)-benzamide] | 13.9% | 89.5% | –
25 | – | O=C(NOCC(O)CN1CCOCC1)c1cc(Cl)c(F)c(F)c1Nc1ccc(F)cc1F (centres unmarked) [Example 154, 5-Chloro-2-(2,4-difluoro-phenylamino)-3,4-difluoro-N-(2-hydroxy-3-morpholin-4-yl-propoxy)-benzamide] | – | 8.9% | 51%
26 | – | O=C(NOCC(O)CN1CCOCC1)c1ccc(F)c(F)c1Nc1ccc(Cl)cc1F (centres unmarked) [Example 155, 2-(4-Chloro-2-fluoro-phenylamino)-3,4-difluoro-N-(2-hydroxy-3-morpholin-4-yl-propoxy)-benzamide] | 0% | 30.9% | –
27 | 11 nM | CC(O)CONC(=O)c1ccc(F)c(F)c1Nc1ccc(I)cc1Cl (centres unmarked) [Example 156, 2-(2-Chloro-4-iodo-phenylamino)-3,4-difluoro-N-(2-hydroxy-propoxy)-benzamide] | – | – | –
28 | – | Cc1cc(I)ccc1Nc1c(C(=O)NOCC(C)O)cc(F)c(F)c1F (centres unmarked) [Example 157, 3,4,5-Trifluoro-N-(2-hydroxy-propoxy)-2-(4-iodo-2-methyl-phenylamino)-benzamide] | 50.7% | 91.5% | –
29 | – | Cc1cc(I)ccc1Nc1c(C(=O)NOCC(C)O)cc(Br)c(F)c1F (centres unmarked) [Example 159, 5-Bromo-3,4-difluoro-N-(2-hydroxy-propoxy)-2-(4-iodo-2-methyl-phenylamino)-benzamide] | 88.4% | 100% | –
30 | – | CC(O)CONC(=O)c1cc(F)c(F)c(F)c1Nc1ccc(I)cc1Cl (centres unmarked) [Example 160, 2-(2-Chloro-4-iodo-phenylamino)-3,4,5-trifluoro-N-(2-hydroxy-propoxy)-benzamide] | 71.9% | 96.8% | –
31 | 15 nM | CC(O)CONC(=O)c1cc(Cl)c(F)c(F)c1Nc1ccc(I)cc1Cl (centres unmarked) [Example 161, 5-Chloro-2-(2-chloro-4-iodo-phenylamino)-3,4-difluoro-N-(2-hydroxy-propoxy)-benzamide] | – | – | –
32 | 7.85 nM | Cc1cc(I)ccc1Nc1c(C(=O)NOCC(C)O)ccc(F)c1F (centres unmarked) [Example 162, 3,4-Difluoro-N-(2-hydroxy-propoxy)-2-(4-iodo-2-methyl-phenylamino)-benzamide] | – | – | –
33 | – | Cc1cc(I)ccc1Nc1c(C(=O)NOCC(C)O)cc(Cl)c(F)c1F (centres unmarked) [Example 163, 5-Chloro-3,4-difluoro-N-(2-hydroxy-propoxy)-2-(4-iodo-2-methyl-phenylamino)-benzamide] | 88.9% | 95.1% | –
34 | 3 nM | CC(O)CONC(=O)c1ccc(F)c(F)c1Nc1ccc(I)cc1F (centres unmarked) [Example 164, 3,4-Difluoro-2-(2-fluoro-4-iodo-phenylamino)-N-(2-hydroxy-propoxy)-benzamide] | – | – | –
35 | 4 nM | CC(O)CONC(=O)c1cc(Cl)c(F)c(F)c1Nc1ccc(I)cc1F (centres unmarked) [Example 165, 5-Chloro-3,4-difluoro-2-(2-fluoro-4-iodo-phenylamino)-N-(2-hydroxy-propoxy)-benzamide] | – | – | –
